{"source": "ChEMBL document CHEMBL1201862", "about": "“PubChem BioAssay data set” (2004)", "assay_in_all_cases": "inhibition of tumour cell growth, NCI panel, 48 h", "key": {"786-0": {"system": "786-0"}, "A498": {"system": "A498"}, "A549": {"system": "A549"}, "ACHN": {"system": "ACHN"}, "CCRF-CEM": {"system": "CCRF-CEM"}, "COLO 205": {"system": "COLO 205"}, "DLD-1": {"system": "DLD-1"}, "DMS-114": {"system": "DMS-114"}, "DMS-273": {"system": "DMS-273"}, "EKVX": {"system": "EKVX"}, "HCC 2998": {"system": "HCC 2998"}, "HCT-116": {"system": "HCT-116"}, "HCT-15": {"system": "HCT-15"}, "HL-60": {"system": "HL-60"}, "HOP-62": {"system": "HOP-62"}, "HT-29": {"system": "HT-29"}, "IGROV-1": {"system": "IGROV-1"}, "K562": {"system": "K562"}, "KM-20L2": {"system": "KM-20L2"}, "KM12": {"system": "KM12"}, "LOX IMVI": {"system": "LOX IMVI"}, "LXFL 529": {"system": "LXFL 529"}, "M14": {"system": "M14"}, "M19-MEL": {"system": "M19-MEL"}, "MOLT-4": {"system": "MOLT-4"}, "Malme-3M": {"system": "Malme-3M"}, "NCI-H226": {"system": "NCI-H226"}, "NCI-H23": {"system": "NCI-H23"}, "NCI-H460": {"system": "NCI-H460"}, "NCI-H522": {"system": "NCI-H522"}, "OVCAR-3": {"system": "OVCAR-3"}, "OVCAR-4": {"system": "OVCAR-4"}, "OVCAR-5": {"system": "OVCAR-5"}, "OVCAR-8": {"system": "OVCAR-8"}, "RPMI-8226": {"system": "RPMI-8226"}, "SF-268": {"system": "SF-268"}, "SF-295": {"system": "SF-295"}, "SK-MEL-28": {"system": "SK-MEL-28"}, "SK-MEL-2": {"system": "SK-MEL-2"}, "SK-MEL-5": {"system": "SK-MEL-5"}, "SN12C": {"system": "SN12C"}, "SNB-19": {"system": "SNB-19"}, "SNB-75": {"system": "SNB-75"}, "SNB-78": {"system": "SNB-78"}, "SR": {"system": "SR"}, "SW-620": {"system": "SW-620"}, "TK-10": {"system": "TK-10"}, "U-251": {"system": "U-251"}, "UACC-257": {"system": "UACC-257"}, "UACC-62": {"system": "UACC-62"}, "UO-31": {"system": "UO-31"}, "XF498": {"system": "XF498"}, "RXF 393": {"system": "RXF 393"}, "SF-539": {"system": "SF-539"}}, "note": "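Assay format: 96-well plates, 48-hour exposure. GI50 = concentration required for 50% inhibition of growth.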 Activity calls are given as the source filed them. Cut-off read from the data, not from the text of the source: active = GI50 up to about 1.1 µM and inactive = higher.", "data": [{"compound": "CCN(CC)CC1CCCCCCCCCCC1=O", "note": "(stereo unspecified)", "values": [{"measurement": "GI50", "setting": "786-0", "value": "> 100 µM (inactive)"}, {"measurement": "GI50", "setting": "A498", "value": "> 100 µM (inactive)"}, {"measurement": "GI50", "setting": "A549", "value": "> 100 µM (inactive)"}, {"measurement": "GI50", "setting": "ACHN", "value": "> 100 µM (inactive)"}, {"measurement": "GI50", "setting": "CCRF-CEM", "value": "> 100 µM (inactive)"}, {"measurement": "GI50", "setting": "COLO 205", "value": "> 100 µM (inactive)"}, {"measurement": "GI50", "setting": "DLD-1", "value": "> 100 µM (inactive)"}, {"measurement": "GI50", "setting": "DMS-114", "value": "> 100 µM (inactive)"}, {"measurement": "GI50", "setting": "DMS-273", "value": "> 100 µM (inactive)"}, {"measurement": "GI50", "setting": "EKVX", "value": "> 100 µM (inactive)"}, {"measurement": "GI50", "setting": "HCC 2998", "value": "> 100 µM (inactive)"}, {"measurement": "GI50", "setting": "HCT-116", "value": "> 100 µM (inactive)"}, {"measurement": "GI50", "setting": "HCT-15", "value": "> 100", "unit": "µM"}, {"measurement": "GI50", "setting": "HL-60", "value": "> 100 µM (inactive)"}, {"measurement": "GI50", "setting": "HOP-62", "value": "> 100 µM (inactive)"}, {"measurement": "GI50", "setting": "HT-29", "value": "> 100 µM (inactive)"}, {"measurement": "GI50", "setting": "IGROV-1", "value": "> 100 µM (inactive)"}, {"measurement": "GI50", "setting": "K562", "value": "> 100 µM (inactive)"}, {"measurement": "GI50", "setting": "KM-20L2", "value": "> 100 µM (inactive)"}, {"measurement": "GI50", "setting": "KM12", "value": "> 100 µM (inactive)"}, {"measurement": "GI50", "setting": "LOX IMVI", "value": "> 100 µM (inactive)"}, {"measurement": "GI50", "setting": "LXFL 529", "value": "> 100 µM (inactive)"}, {"measurement": "GI50", "setting": "M14", "value": "> 100 µM (inactive)"}, {"measurement": "GI50", "setting": "M19-MEL", "value": "> 100 µM (inactive)"}, {"measurement": "GI50", "setting": "MOLT-4", "value": "> 100 µM (inactive)"}, {"measurement": "GI50", "setting": "Malme-3M", "value": "> 100 µM (inactive)"}, {"measurement": "GI50", "setting": "NCI-H226", "value": "> 100 µM (inactive)"}, {"measurement": "GI50", "setting": "NCI-H23", "value": "> 100 µM (inactive)"}, {"measurement": "GI50", "setting": "NCI-H460", "value": "> 100 µM (inactive)"}, {"measurement": "GI50", "setting": "NCI-H522", "value": "> 100 µM (inactive)"}, {"measurement": "GI50", "setting": "OVCAR-3", "value": "> 100 µM (inactive)"}, {"measurement": "GI50", "setting": "OVCAR-4", "value": "> 100 µM (inactive)"}, {"measurement": "GI50", "setting": "OVCAR-5", "value": "> 100 µM (inactive)"}, {"measurement": "GI50", "setting": "OVCAR-8", "value": "> 100 µM (inactive)"}, {"measurement": "GI50", "setting": "RPMI-8226", "value": "> 100 µM (inactive)"}, {"measurement": "GI50", "setting": "SF-268", "value": "> 100 µM (inactive)"}, {"measurement": "GI50", "setting": "SF-295", "value": "> 100 µM (inactive)"}, {"measurement": "GI50", "setting": "SK-MEL-28", "value": "> 100 µM (inactive)"}, {"measurement": "GI50", "setting": "SK-MEL-2", "value": "> 100 µM (inactive)"}, {"measurement": "GI50", "setting": "SK-MEL-5", "value": "> 100 µM (inactive)"}, {"measurement": "GI50", "setting": "SN12C", "value": "> 100 µM (inactive)"}, {"measurement": "GI50", "setting": "SNB-19", "value": "> 100 µM (inactive)"}, {"measurement": "GI50", "setting": "SNB-75", "value": "42.3 µM (inactive)"}, {"measurement": "GI50", "setting": "SNB-78", "value": "> 100 µM (inactive)"}, {"measurement": "GI50", "setting": "SR", "value": "> 100 µM (inactive)"}, {"measurement": "GI50", "setting": "SW-620", "value": "> 100 µM (inactive)"}, {"measurement": "GI50", "setting": "TK-10", "value": "> 100 µM (inactive)"}, {"measurement": "GI50", "setting": "U-251", "value": "> 100 µM (inactive)"}, {"measurement": "GI50", "setting": "UACC-257", "value": "> 100 µM (inactive)"}, {"measurement": "GI50", "setting": "UACC-62", "value": "> 100 µM (inactive)"}, {"measurement": "GI50", "setting": "UO-31", "value": "> 100 µM (inactive)"}, {"measurement": "GI50", "setting": "XF498", "value": "> 100 µM (inactive)"}]}, {"compound": "Cc1cc(C)nc(NS(=O)(=O)c2ccc(Nc3c4ccccc4nc4c(C(=O)NCCN(C)C)ccc(Cl)c34)cc2)n1", "values": [{"measurement": "GI50", "setting": "786-0", "value": "3.73 µM (inactive)"}, {"measurement": "GI50", "setting": "A549", "value": "0.942 µM (active)"}, {"measurement": "GI50", "setting": "ACHN", "value": "2.02 µM (inactive)"}, {"measurement": "GI50", "setting": "CCRF-CEM", "value": "1.31 µM (inactive)"}, {"measurement": "GI50", "setting": "COLO 205", "value": "1.06 µM (active)"}, {"measurement": "GI50", "setting": "DLD-1", "value": "3.03 µM (inactive)"}, {"measurement": "GI50", "setting": "DMS-114", "value": "1.01 µM (active)"}, {"measurement": "GI50", "setting": "EKVX", "value": "4.4 µM (inactive)"}, {"measurement": "GI50", "setting": "HCC 2998", "value": "13.8 µM (inactive)"}, {"measurement": "GI50", "setting": "HCT-116", "value": "0.798 µM (active)"}, {"measurement": "GI50", "setting": "HCT-15", "value": 2.78, "unit": "µM"}, {"measurement": "GI50", "setting": "HL-60", "value": "1.44 µM (inactive)"}, {"measurement": "GI50", "setting": "HOP-62", "value": "2.85 µM (inactive)"}, {"measurement": "GI50", "setting": "HT-29", "value": "0.659 µM (active)"}, {"measurement": "GI50", "setting": "IGROV-1", "value": "2.06 µM (inactive)"}, {"measurement": "GI50", "setting": "K562", "value": "1.14 µM (inactive)"}, {"measurement": "GI50", "setting": "KM-20L2", "value": "2.08 µM (inactive)"}, {"measurement": "GI50", "setting": "KM12", "value": "1.7 µM (inactive)"}, {"measurement": "GI50", "setting": "LOX IMVI", "value": "0.711 µM (active)"}, {"measurement": "GI50", "setting": "LXFL 529", "value": "1.11 µM (active)"}, {"measurement": "GI50", "setting": "M14", "value": "2.9 µM (inactive)"}, {"measurement": "GI50", "setting": "M19-MEL", "value": "2.05 µM (inactive)"}, {"measurement": "GI50", "setting": "MOLT-4", "value": "0.255 µM (active)"}, {"measurement": "GI50", "setting": "NCI-H226", "value": "0.7 µM (active)"}, {"measurement": "GI50", "setting": "NCI-H23", "value": "2.43 µM (inactive)"}, {"measurement": "GI50", "setting": "NCI-H460", "value": "0.39 µM (active)"}, {"measurement": "GI50", "setting": "NCI-H522", "value": "1.24 µM (inactive)"}, {"measurement": "GI50", "setting": "OVCAR-3", "value": "7.64 µM (inactive)"}, {"measurement": "GI50", "setting": "OVCAR-4", "value": "1.1 µM (active)"}, {"measurement": "GI50", "setting": "OVCAR-5", "value": "4.7 µM (inactive)"}, {"measurement": "GI50", "setting": "OVCAR-8", "value": "0.681 µM (active)"}, {"measurement": "GI50", "setting": "RXF 393", "value": "2.09 µM (inactive)"}, {"measurement": "GI50", "setting": "SF-268", "value": "1.51 µM (inactive)"}, {"measurement": "GI50", "setting": "SF-295", "value": "1.45 µM (inactive)"}, {"measurement": "GI50", "setting": "SF-539", "value": "2.36 µM (inactive)"}, {"measurement": "GI50", "setting": "SK-MEL-28", "value": "5.4 µM (inactive)"}, {"measurement": "GI50", "setting": "SK-MEL-2", "value": "3.61 µM (inactive)"}, {"measurement": "GI50", "setting": "SK-MEL-5", "value": "4.38 µM (inactive)"}, {"measurement": "GI50", "setting": "SN12C", "value": "1.45 µM (inactive)"}, {"measurement": "GI50", "setting": "SNB-19", "value": "1.45 µM (inactive)"}, {"measurement": "GI50", "setting": "SNB-75", "value": "2.59 µM (inactive)"}, {"measurement": "GI50", "setting": "SNB-78", "value": "8.3 µM (inactive)"}, {"measurement": "GI50", "setting": "SR", "value": "0.259 µM (active)"}, {"measurement": "GI50", "setting": "SW-620", "value": "0.679 µM (active)"}, {"measurement": "GI50", "setting": "TK-10", "value": "5.07 µM (inactive)"}, {"measurement": "GI50", "setting": "U-251", "value": "1.66 µM (inactive)"}, {"measurement": "GI50", "setting": "UACC-62", "value": "1.74 µM (inactive)"}, {"measurement": "GI50", "setting": "UO-31", "value": "1.71 µM (inactive)"}, {"measurement": "GI50", "setting": "XF498", "value": "5.13 µM (inactive)"}]}]}
